Results as given in ChEMBL document CHEMBL1201862, “PubChem BioAssay data set” (2004).
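Where inhibition never reached the appropriate level, the endpoint shown equals the highest concentration tested. Otherwise, values were interpolated linearly from a five-concentration, 48-hour dose response in 96-well plates. Here, GI50 denotes the concentration required for 50% inhibition of growth.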 Calls of active or inactive are those of the source. Cut-off read from the data, not from the text of the source: active = GI50 up to about 1.1 µM and inactive = higher.

Legend:
Experiment in all cases: NCI-60 cell line screen, 48 h
ACHN = tested on: ACHN
Malme-3M = tested on: Malme-3M
MCF7 = tested on: MCF7
UACC-62 = tested on: UACC-62
RPMI-8226 = tested on: RPMI-8226
DU-145 = tested on: DU-145
NCI-H226 = tested on: NCI-H226
A498 = tested on: A498
OVCAR-4 = tested on: OVCAR-4
K562 = tested on: K562
NCI-H522 = tested on: NCI-H522
786-0 = tested on: 786-0
SW-620 = tested on: SW-620
T47D = tested on: T47D
OVCAR-3 = tested on: OVCAR-3
U-251 = tested on: U-251
KM12 = tested on: KM12
SNB-19 = tested on: SNB-19
IGROV-1 = tested on: IGROV-1
M14 = tested on: M14

C[C@]12CC[C@H]3[C@@H](CCC4=CC(=O)C=C[C@@]43OC(=O)C(F)(F)F)[C@@H]1CCC2=O
GI50 (ACHN): > 100 µM (inactive) | GI50 (Malme-3M): 0.558 µM (active) | GI50 (MCF7): > 100 µM (inactive) | GI50 (UACC-62): > 85.5 µM (inactive) | GI50 (RPMI-8226): > 100 µM (inactive) | GI50 (DU-145): > 100 µM (inactive) | GI50 (NCI-H226): > 100 µM (inactive) | GI50 (A498): > 100 µM (inactive) | GI50 (OVCAR-4): > 100 µM (inactive) | GI50 (K562): > 100 µM (inactive) | GI50 (NCI-H522): > 84.1 µM (inactive) | GI50 (786-0): > 45.6 µM (inactive) | GI50 (SW-620): > 100 µM (inactive) | GI50 (T47D): > 100 µM (inactive) | GI50 (OVCAR-3): > 100 µM (inactive) | GI50 (U-251): > 100 µM (inactive) | GI50 (KM12): > 100 µM (inactive) | GI50 (SNB-19): > 33.6 µM (inactive) | GI50 (IGROV-1): > 100 µM (inactive) | GI50 (M14): > 100 µM (inactive)

O=C(OC1=CCN(Br)C1=O)C1=C(O)C(=O)N(Br)C1
GI50 (ACHN): 33.9 µM (inactive) | GI50 (Malme-3M): 55 µM (inactive) | GI50 (MCF7): 33 µM (inactive) | GI50 (UACC-62): 18.1 µM (inactive) | GI50 (RPMI-8226): 24.4 µM (inactive) | GI50 (DU-145): 53.2 µM (inactive) | GI50 (NCI-H226): 54 µM (inactive) | GI50 (A498): > 100 µM (inactive) | GI50 (OVCAR-4): 30 µM (inactive) | GI50 (K562): 29.1 µM (inactive) | GI50 (NCI-H522): 14.3 µM (inactive) | GI50 (786-0): 16.7 µM (inactive) | GI50 (SW-620): 26.5 µM (inactive) | GI50 (T47D): 18.4 µM (inactive) | GI50 (OVCAR-3): 20.8 µM (inactive) | GI50 (U-251): 22.5 µM (inactive) | GI50 (KM12): 32.2 µM (inactive) | GI50 (SNB-19): 20.2 µM (inactive) | GI50 (IGROV-1): 39.1 µM (inactive) | GI50 (M14): 51.8 µM (inactive)
